Source: patent US7033829B2, “Method to inhibit cell growth using oligonucleotides” (Trustees of Boston University, priority 2000, dated 2006)
Oligonucleotides are written 5' to 3', each unit as a sugar letter and its base; * is a phosphorothioate linkage, no mark a phosphodiester; rarer units and linkages stand in square brackets, end groups in braces. Plain capitals give the bases only. d = 2'-deoxy (DNA); {P} = phosphate

Key:
[1] = system: NBS fibroblasts; experiment: FACS analysis of NBS fibroblasts; format: cell-based, human; settings: 40 μM
Method: Fibroblasts were obtained from an NBS (Nijmegen breakage syndrome) patient, in which p95/Nbs1 was below the level of detection. Preconfluent cultures or normal (control) fibroblasts and NBS fibroblasts were treated with 40 μM of the oligonucleotides and collected after 48 hours for FACS analysis (FIGS. 34A–34H). The averages and standard deviations were calculated from triplicate cultures of each condition. FACS profiles from one representative experiment of three are shown.

[2] = system: E2F1, p53, p53 phosphorylated at serine 15; experiment: Western blot of E2F1, p53 and phospho-p53 in neonatal fibroblasts; format: cell-based, human
Method: Cells were plated at a density of 180,000 cells/ml in RPMI 1640 medium supplemented with 3% FBS. Cells were treated with 40 μM of either of the oligonucleotides for 72 hours. Cells were then collected, washed and fixed for 30 minutes in 4% paraformaldehyde and then permeabilized with 0.1% Triton X-100 for 2 minutes. The TUNEL assay was carried out with components and instructions of the In Situ Cell Death Detection Kit using fluorescein-labeled dUTP from Boehringer Mannheim. TUNEL-positive cells were detected by FACS analysis and confocal microscopy. Cellular Uptake of Oligonucleotides For confocal analysis, Jurkat cells were plated on Permanox chamber slides (Lab-Tek, Naperville, Ill.) and treated for 4 hours with fluorescein phosphoramidite (FAM)-labeled oligonucleotides (Research Genetics, Inc., Huntsville, Ala.). Adherent cells were fixed in 4% paraformaldehyde in PBS, stained with propidium iodide (PI) to identify nuclei, mounted with Slowfade reagent (Molecular Probes, Eugene, Oreg.), covered with a coverslip and stored at 4° C. in the dark. Uptake of the oligonucleotides was assessed in 5–10 μm sections with a Carl Zeiss LSM 510 confocal laser microscope. Computer images assign green to the FAM-oligonucleotides, red to PI, and yellow to co-localization of the signals. FACS analysis was performed on Jurkat cells identically treated with the FAM-oligonucleotides for 4 hours, then fixed in 0.5 ml of 4% paraformaldehyde overnight at 4° C. Fluorescence was measured on the FL-1 channel. Western Blot Analysis and Antibodies Western blot analysis was performed as previously described [Eller, M. S., et al., (1996), Proc Natl Acad Sci USA 93, 1087–1092]. Antibody Ab-6 (DO-1 clone, Oncogene Research Products, Cambridge, Mass.) detected p53; antibody KH95 (Santa Cruz Biotechnology, Inc., Santa Cruz, Calif.) detected E2F1; antibody Ab-4 (Oncogene Research products) detected p73. Phospho-p53 (serine 15) was detected using the #9284 polyclonal antibody and phospho-p95/Nbs1 (serine 343) was detected by a phospho-p95/Nbs1-specific polyclonal antibody, both antibodies from Cell Signaling Technology (Beverly, Mass.). p95/Nbs1 antibody (#NB-100-143, Novus Biologicals, Littleton, Colo.) and an actin antibody (I-19, Santa Cruz Biotechnology, Santa Cruz, Calif.) were also used. Modification of p95/Nbs1 Jurkat and SCC12F cells were cultured and treated with the oligonucleotides as described above. After the indicated times, total protein was collected and analyzed by 8% PAGE and western blot using a polyclonal antibody to p95/Nbs1 (#NB-100-143, Novus Biologicals, Littleton, Colo.). Immunoprecipitation and treatment with a serine/threonine phosphatase was performed as described by Lim et al. [Lim, D. S. et al., Nature 404:613–617, 2000]. Transient Transfection and Expression of TRF2^DN The Ad TRF2^DN expression vector was the kind gift of Dr. Titia deLange (Rockefeller University). The control vector, pCMV LUC was the gift of Dr. M. Hedayati, Johns Hopkins University. Cells were plated at a density of 3.5×10^3 cells/cm^2. One day later, the cultures were transfected with 1 μg plasmid DNA/35 mm culture dish, using the Fugene 6 Transfection Reagent (Roche Molecular Biochemicals, Indianapolis, Ind.), following the protocol supplied by the manufacturer. Cells were collected at the indicated times after transfection and p95/Nbs1 was examined by western blot as described. Telomere Length Normal human fibroblasts were cultured for 5 days in the presence of either diluent or 40 μM 11mer-1, -2 or -3. The cells were then collected and the genomic DNA isolated using the DNeasy Tissue Kit (Qiagen, Valencia, Calif.). Telomere length was determined essentially as described by van Steensel and de Lange (van Steensel, B. and T. de Lange. 1997, Nature 385: 740–743) using the Telo TAGGG Telomere Length Assay from Roche Molecular Biochemicals (Indianapolis, Ind.) and the protocol supplied by the manufacturer. […]

[3] = system: IL-10; experiment: IL-10 mRNA (RT-PCR) and protein (ELISA) in keratinocytes; format: cell-based, human
Method: The immunomodulatory effect of pTpT was tested in vitro using human keratinocytes. Duplicate cultures of primary human keratinocytes were treated with pTpT, diluent or UVB irradiation (200 J/m^2) or sham irradiation. Cells were collected at various times after treatment and analyzed for IL-10 protein by ELISA and for IL-10 mRNA by RT-PCR. An increase in IL-10 mRNA was detected after 6 hours in irradiated cells and after 48 hours in pTpT treated cells. An increase in IL-10 protein of 18 pg/ml was detected 24 hours after irradiation and 15±2 pg/ml 72 hours after treatment with pTpT. […] In the allogenic MLR, T cell activation is measured as lymphocyte proliferation, measured by ^3H-thymidine incorporation. IL-10 activity of culture medium from the 72 hour pTpT sample was measured by addition of the >10 kD components (containing the 18 kD IL-10 protein). […] Thus, like UVB irradiation, pTpT induces IL-10 in human keratinocytes which is likely to cooperate with TNFα to inhibit contact hypersensitivity in pTpT treated skin.

[4] = system: Normal human neonatal fibroblasts; experiment: Cell growth of normal neonatal fibroblasts; format: cell-based; settings: 100 μM
Method: Normal human neonatal fibroblasts were plated in Falcon P35 culture dishes at a density of 9×10^4 cells/dish. The culture medium was DME+10% calf serum, 2 ml per plate. One day after plating, cultures were supplemented with either 100 μM T2 in DME or 100 μM A2 in DME, or water (control). Two plates were collected and counted before the additions to give a starting, or “day 0,” reading. Duplicate plates of each condition were harvested through five days after addition of the supplements and cell number determined. All cell counts were done by Coulter™ Counter.
In a second experiment, normal human neonatal fibroblasts were plated and cultured, as described above in Example 1 for SCC12F cells. Cultures were supplemented with either 100 μM T2 or water (control), and cells were harvested for cell counts. The cell yield in fibroblast cultures treated with T2 was reduced by 40% compared to that of paired control cultures after three days (FIG. 8). This corresponds to 4 population doublings in this time for control cells, compared with 3.6 doublings for T2-treated cells.

Substance	proliferation compared to diluent-treated NBS cells [1]	increase in the number of S-phase cells compared to diluent ([1]; 48 hours, not statistically significant (p<0.08)) [%]	E2F1 increase peaked after [2] [h]	increase in E2F1 seen as early as [2] [h]	phosphorylated p53 (serine 15) first detected at [2] [h]	increase in E2F1 compared to diluent or 11mer-2 treated controls ([2]; 40 μM, 24 hours, densitometry)	increase in p53 compared to diluent or 11mer-2 treated controls ([2]; 40 μM, 48 hours)	increase in p53 compared to diluent or 11mer-2 treated controls ([2]; 40 μM, 72 hours)	p53 protein phosphorylated at serine 15 ([2]; sustained through at least 48 hours)	increase in IL-10 protein ([3]; 72 hours after treatment) [pg/mL]	time after which an increase in IL-10 mRNA was detected ([3]; primary human keratinocytes) [h]	cell yield reduced compared to paired control cultures ([4]; after three days) [%]	population doublings ([4]; three days (control 4))
pGTTAGGGTTAG (DNA {P}-dGdTdTdAdGdGdGdTdTdAdG) [SEQ ID NO: 5]	minimally affected	8	12 to 24	4	4	170–250%	60–300%	240–380%	striking and selective increase				
thymidine dinucleotide [pTpT]										15 ± 2	48	40	3.6
